In ChEMBL document CHEMBL1131597, “Discovery and development of the novel potent orally active thrombin inhibitor N-(9-hydroxy-9-fluorenecarboxy)prolyl trans-4-aminocyclohexylmethyl amide (L-372,460): coapplication of structure-based design and rapid multiple analogue synthesis on solid support” (J Med Chem, 1998) one finds IC50 and Ki data, which are given here for 17 compounds.

Each structure is given as a SMILES string.

Assay [1] addresses T1, Prothrombin (Homo sapiens, UniProt P00734). As to the kind of experiment: Inhibition of thrombin-catalyzed hydrolysis of a standard substrate.
Assay [2] concerns the target T1, Prothrombin. As to the kind of experiment: Binding affinity towards thrombin was determined.
Assay [3] concerns the target Serine protease 1 (Homo sapiens, UniProt P07477). The experiment in a line: Binding affinity towards trypsin was determined.

Serine protease 1, sequence (P07477 whole entry): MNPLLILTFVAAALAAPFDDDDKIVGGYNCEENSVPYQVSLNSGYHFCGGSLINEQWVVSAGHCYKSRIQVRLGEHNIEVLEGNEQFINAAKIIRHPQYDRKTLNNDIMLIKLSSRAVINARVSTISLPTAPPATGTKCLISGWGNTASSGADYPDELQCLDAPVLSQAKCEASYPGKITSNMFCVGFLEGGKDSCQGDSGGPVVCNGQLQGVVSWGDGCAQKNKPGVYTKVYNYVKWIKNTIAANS

As a reminder, the IC50 is the concentration at which inhibition is half-maximal. Read a high IC50 as lower potency. As usually defined, the Ki is a measure of affinity in units of concentration, obtained from inhibition or displacement. Read a high Ki as a looser hold on the target. In the case of `CN[C@H](Cc1ccccc1)C(=O)N1CCC[C@H]1C(=O)NC[C@H]1CC[C@H](N)CC1`, 6 nM corresponded to half-maximal inhibition in assay [1] (IC50). Further, affinity in assay [2] was put at a Ki of 4.9 nM.
`NC1CCC(CNC(=O)[C@@H]2CCCN2C(=O)CC2c3ccccc3-c3ccccc32)CC1` (some centres not stated) gave an IC50 in assay [1] of 106 nM.
In the case of `NC1CCC(CNC(=O)[C@@H]2CCCN2C(=O)C23CC4CC(CC(C4)C2)C3)CC1` (some centres not stated), half-maximal inhibition in assay [1] (IC50) was put at 120 nM.
The compound `COc1cc(C(O)C(=O)N2CCC[C@H]2C(=O)NCC2CCC(N)CC2)ccc1O` (some centres not stated) showed an IC50 in assay [1] of 11 nM. The compound further showed a Ki in assay [2] of 2.5 nM.
In assay [1], `COc1cc(CC(=O)N2CCC[C@H]2C(=O)NCC2CCC(N)CC2)cc(OC)c1OC` (some centres not stated) displayed an IC50 of 50 nM.
Take `CCCCC(CC(=O)N1CCC[C@H]1C(=O)NCC1CCC(N)CC1)c1ccccc1` (some centres not stated): the IC50 in assay [1] is 5 nM.
In turn, `N#C/C(=C\c1ccccc1)C(=O)N1CCC[C@H]1C(=O)NCC1CCC(N)CC1` (some centres not stated) showed an IC50 in assay [1] of 140 nM.
On the same count and under the same terms, the value for `NC1CCC(CNC(=O)[C@@H]2CCCN2C(=O)C2CC(=O)N3CCc4ccccc4C23)CC1` (some centres not stated) was 90 nM; that for `NC1CCC(CNC(=O)[C@@H]2CCCN2C(=O)C2c3ccccc3-c3ccccc32)CC1` (some centres not stated) was 380 nM.
The same measure, in the same setting: the value for `CN1C(=O)C[C@@H](c2cccnc2)[C@@H]1C(=O)N1CCC[C@H]1C(=O)NCC1CCC(N)CC1` (some centres not stated) was 60 nM; that for `NC1CCC(CNC(=O)[C@@H]2CCCN2C(=O)C2CCc3ccccc3C2)CC1` (some centres not stated) was 910 nM.
Compound `NC1CCC(CNC(=O)[C@@H]2CCCN2C(=O)C(Cc2ccccc2)c2ccccc2)CC1` (some centres not stated) returned an IC50 in assay [1] of 57 nM.
In assay [1], `N[C@H]1CC[C@H](CNC(=O)[C@@H]2CCCN2C(=O)C2(O)c3ccccc3-c3ccccc32)CC1` had an IC50 of 4 nM. Also, the affinity in assay [3] corresponds to a Ki of 860 nM.
For `NC1CCC(CNC(=O)[C@@H]2CCCN2C(=O)C2COc3ccccc3O2)CC1` (some centres not stated), the midpoint of inhibition in assay [1], the IC50, lay at 100 nM. In assay [2], the Ki was determined as 75 nM.
The compound `NC1CCC(CNC(=O)[C@@H]2CCCN2C(=O)C2CC2(c2ccccc2)c2ccccc2)CC1` (some centres not stated) displayed an IC50 in assay [1] of 190 nM.
On to `NC1CCC(CNC(=O)[C@@H]2CCCN2C(=O)C(Cc2ccc(O)cc2)c2ccccc2)CC1` (some centres not stated), for which the IC50 in assay [1] came out at 10 nM. This compound also came in with a Ki in assay [2] of 2.5 nM.
`COc1ccccc1CCC(=O)N1CCC[C@H]1C(=O)NCC1CCC(N)CC1` (some centres not stated): in assay [1], the IC50 turned out to be 230 nM.
